Test results reported in US20250002492A1, “COMPOSITIONS OF FOLATE ABSORPTION INHIBITORS AND METHODS THEREOF” (THE TEXAS A&M UNIVERSITY SYSTEM, priority 2023, published 2025).

Molecular target: T1, Folate Uptake Transporter (PCFT) in Caco2 cells (Homo sapiens, UniProt Q96NT5)
T1 construct: These cells express high levels of the PCFT/SLC46A1 receptor; host or cells: Caco-2
T1 sequence (Q96NT5 1-459): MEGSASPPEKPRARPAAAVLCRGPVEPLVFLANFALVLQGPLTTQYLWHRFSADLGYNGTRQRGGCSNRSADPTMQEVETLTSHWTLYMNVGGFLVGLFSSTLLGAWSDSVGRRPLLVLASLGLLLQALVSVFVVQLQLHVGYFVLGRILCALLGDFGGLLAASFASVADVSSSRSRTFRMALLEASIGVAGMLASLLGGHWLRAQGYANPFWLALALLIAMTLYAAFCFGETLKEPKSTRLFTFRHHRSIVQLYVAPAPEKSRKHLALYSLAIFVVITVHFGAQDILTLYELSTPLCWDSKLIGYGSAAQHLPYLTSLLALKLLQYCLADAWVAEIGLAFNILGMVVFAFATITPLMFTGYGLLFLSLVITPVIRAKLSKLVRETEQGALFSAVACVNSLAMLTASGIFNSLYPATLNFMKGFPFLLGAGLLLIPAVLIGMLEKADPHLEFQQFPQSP
Assay: Folate uptake transporter inhibition in Caco2 cell line ([3H]-folic acid uptake)
Assay type: cell-based
Method: Cell plates were prepared using Caco-2 cell culture medium consisting of Dulbecco's Modified Eagle's Medium (DMEM) with high glucose and L-glutamine supplemented with: 10% FBS, 1× penicillin-streptomycin mixture and 1×non-essential amino acids (NEAA) and medium was incubated at 37° C., 5% CO2 for 0.5 hour. Plates were prepared for cell seeding. Caco-2 cells from American Type Culture Collection at passage 44 were cultivated in T-75 flasks in a cell culture incubator set at 37° C., 5% CO2, 95% relative humidity. Cells reached 80-90% confluence before detaching and splitting. Cultivated cells in T-75 flasks were rinsed with 5 mL PBS and aspirated off. Then, 3 mL trypsin/EDTA was added, and cells were incubated at 37° C. for approximately 5 minutes or until the cells detached and floated. Trypsin/EDTA was inactivate by adding excess serum containing medium. Cell suspension was removed and transferred to a conical tube and cells were pelleted by centrifugation at 120×g for 5 minutes. Cells were resuspended in seeding medium at a density of 3×10^4 cells/well in 24-well plates. The plate was incubated for 8-10 days. The medium was replaced every other day, beginning no sooner than 48 hours after initial plating.
The transport buffer (HBSS with 10 mM MES, pH 5.5) was prepared by weighing 1.952 g of MES and 0.35 g sodium hydrogen carbonate and adding into 900 mL of pure water followed by sonication to dissolve the content. Following the transfer of 100 mL of 10×HBSS into the solution. The solution was placed on a stirrer, the pH was slowly adjusted with hydrochloric acid to 5.5, and then the solution was filtered to get HBSS solution (with 10 mM MES, pH 5.5).
The [3H]-folic acid (10 nM) substrate solution was prepared using [3H]-folic acid (1 mCi/ml) diluted with pH 5.5 buffer. Next, the [3H]-folic acid (10 nM) substrate solution+test inhibitor (X μM) and the [3H]-folic acid (10 nM) substrate solution+positive control inhibitor (pemetrexed, 50 μM) were prepared. For the solution without inhibitor, DMSO was diluted with corresponding substrate solution to get the working incubation solution.
The pre-incubation solution was prepared by adding the same final concentration of test compound (X μM) and the known inhibitor (pemetrexed, 50 μM) in pH 5.5 buffer. For the solution without inhibitor, DMSO diluted with in pH 5.5 buffer was used as the vehicle control.
When the 8-10 day Caco-2 cultured cells reached confluence and were differentiated, they were ready to be used for transport studies. The Caco-2 plate was removed from the incubator, and the medium was removed from the 24-well Plates. Next, cells were washed 3 times with 300 μL of pre-warmed pH 5.5 buffer. Then, 300 μL of pre-incubation solution was added into each well and the plate was placed at 37° C. for 30 minutes. The assay was performed in duplicate. After 30 minutes pre-incubation, the pre-incubation solution was aspirated, and 300 μL of pre-warmed working incubation solution was added to start the transporter assay. After 6 minutes incubation, cells were washed by quickly adding/aspirating 300 μL of ice-cold pH 5.5 buffer 4 times. The pH 5.5 buffer was removed and 300 μL of pure water was added into each well. Freeze-thaw in liquid nitrogen and 37° C. incubator was repeated for 3 times to lyse cells. After, centrifugation at 3,300 g was performed for 30 seconds. Next, 50 μL of supernatant was transferred to Isoplate-96 Microplate. 200 μL of scintillation fluid was added to the 50 μL sample and radioactivity was measured by liquid scintillation counting in a MicroBeta 2 scintillation counter for 1 min/sample.
A BCA Kit was used to determine the protein content for each well. Bovine serum albumin at 2, 1, 0.5, 0.25, 0.125, 0.0625, 0.0313, 0.0156, 0.00781 and 0.00391 mg/mL was prepared in Phosphate Buffer Saline (PBS, pH 7.4). 10 μL of supernatant was mixed from the previous step with the same volume of PBS. […]

## CC(=O)N1CCC(C(=O)N2CCN3C(=O)c4cc(-c5ccccc5)ccc4NC(=O)C3C2)CC1 (centres unmarked) [MPOL_B_1, 2-(1-acetylpiperidine-4-carbonyl)-8-phenyl-1,3,4,12a-tetrahydrobenzo[e]pyrazino[1,2-a][1,4]diazepine-6,12(2H,11H)-dione]
Caco-2, pH 5.5, test conc. 50 μM, [3H]-folic acid 10 nM, 30 min pre-incubation, 6 min incubation, read-out: Percentage inhibition (%)
  inhibition at 50 µM: 42.3%
Caco-2 cells, 50 μM, pH 5.5
  effect on folate transport / uptake: inhibit folate uptake
